Results published in PMC7162861, “Synthesis, cytotoxicity, pharmacokinetic profile, binding with DNA and BSA of new imidazo[1,2-a]pyrazine-benzo[d]imidazol-5-yl hybrids” (Scientific Reports, 2020).

How the values were obtained:
786-0 = test: NCI cytotoxicity screen, Renal Cancer panel; format: cell-based, human; settings: Homo sapiens, single dose 10 µM, negative = lethal, read-out: Percent growth inhibition
Experimental: (§1) Cytotoxicity was performed at National Cancer Institute (NCI), Bethesda, USA as per their protocols.

TK-10 = test: NCI cytotoxicity screen, Renal Cancer panel; format: cell-based, human; settings: Homo sapiens, single dose 10 µM, negative = lethal, read-out: Percent growth inhibition
Experimental: as §1

M14 = test: NCI cytotoxicity screen, Melanoma panel; format: cell-based, human; settings: Homo sapiens, single dose 10 µM, negative = lethal, read-out: Percent growth inhibition
Experimental: as §1

LOX IMVI = test: NCI cytotoxicity screen, Melanoma panel; format: cell-based, human; settings: Homo sapiens, single dose 10 µM, negative = lethal, read-out: Percent growth inhibition
Experimental: as §1

UACC-62 = test: NCI cytotoxicity screen, Melanoma panel; format: cell-based, human; settings: Homo sapiens, single dose 10 µM, negative = lethal, read-out: Percent growth inhibition
Experimental: as §1

U251 = test: NCI cytotoxicity screen, CNS Cancer panel; format: cell-based; settings: Homo sapiens, U-251; U251; single dose 10 µM; negative = lethal; read-out: Percent growth inhibition
Experimental: as §1

SF-295 = test: NCI cytotoxicity screen, CNS Cancer panel; format: cell-based; settings: Homo sapiens, single dose 10 µM, negative = lethal, read-out: Percent growth inhibition
Experimental: as §1

SF-539 = test: NCI cytotoxicity screen, CNS Cancer panel; format: cell-based; settings: Homo sapiens, single dose 10 µM, negative = lethal, read-out: Percent growth inhibition
Experimental: as §1

SNB-19 = test: NCI cytotoxicity screen, CNS Cancer panel; format: cell-based; settings: Homo sapiens; SNB-19; single dose 10 µM; negative = lethal; read-out: Percent growth inhibition
Experimental: as §1

SF-268 = test: NCI cytotoxicity screen, CNS Cancer panel; format: cell-based; settings: Homo sapiens, single dose 10 µM, negative = lethal, read-out: Percent growth inhibition
Experimental: as §1

SNB-75 = test: NCI cytotoxicity screen, CNS Cancer panel; format: cell-based; settings: Homo sapiens, single dose 10 µM, negative = lethal, read-out: Percent growth inhibition
Experimental: as §1

SW-620 = test: NCI cytotoxicity screen, Colon Cancer panel; format: cell-based, human; settings: Homo sapiens, single dose 10 µM, negative = lethal, read-out: Percent growth inhibition
Experimental: as §1

KM12 = test: NCI cytotoxicity screen, Colon Cancer panel; format: cell-based, human; settings: Homo sapiens, single dose 10 µM, negative = lethal, read-out: Percent growth inhibition
Experimental: as §1

MALME-3M = test: NCI cytotoxicity screen, Melanoma panel; format: cell-based; settings: Homo sapiens; MALME-3M; single dose 10 µM; negative = lethal; read-out: Percent growth inhibition
Experimental: as §1

UACC-257 = test: NCI cytotoxicity screen, Melanoma panel; format: cell-based; settings: Homo sapiens, single dose 10 µM, negative = lethal, read-out: Percent growth inhibition
Experimental: as §1

SK-MEL-28 = test: NCI cytotoxicity screen, Melanoma panel; format: cell-based; settings: Homo sapiens, single dose 10 µM, negative = lethal, read-out: Percent growth inhibition
Experimental: as §1

SK-MEL-5 = test: NCI cytotoxicity screen, Melanoma panel; format: cell-based; settings: Homo sapiens, single dose 10 µM, negative = lethal, read-out: Percent growth inhibition
Experimental: as §1

SK-MEL-2 = test: NCI cytotoxicity screen, Melanoma panel; format: cell-based; settings: Homo sapiens, single dose 10 µM, negative = lethal, read-out: Percent growth inhibition
Experimental: as §1

MDA-MB-435 = test: NCI cytotoxicity screen, Melanoma panel; format: cell-based; settings: Homo sapiens, MDA-MB-435, read-out: Percent growth inhibition
Experimental: as §1

In the case of `c1ccc(-c2cn3ccnc3c(-c3ccc4c(c3)ncn4C3CCCCC3)n2)cc1` [Compound 9, 8-(1-cyclohexyl-1H-benzo[d]imidazol-5-yl)-6-phenylimidazo[1,2-a]pyrazine], the inhibition at 10 µM (786-0) is reported as 8.24%, the inhibition at 10 µM (TK-10) is reported as < 1% and the inhibition at 10 µM (M14) is reported as 1.61%. For the same molecule, the inhibition at 10 µM (LOX IMVI) was 4.86%, the inhibition at 10 µM (UACC-62) was 2.01% and the inhibition at 10 µM (U251) was 4.44%. The inhibition at 10 µM (SF-295) was < 1%, the inhibition at 10 µM (SF-539) was 2.17% and the inhibition at 10 µM (SNB-19) was 1.72%. The inhibition at 10 µM (SF-268) was 1.33%, the inhibition at 10 µM (SNB-75) was 5.65% and the inhibition at 10 µM (SW-620) was < 1%. For the same molecule, the inhibition at 10 µM (KM12) was 5.7%, the inhibition at 10 µM (MALME-3M) was < 1% and the inhibition at 10 µM (UACC-257) was < 1%. For the same molecule, the inhibition at 10 µM (SK-MEL-28) was < 1%, the inhibition at 10 µM (SK-MEL-5) was 5.71% and the inhibition at 10 µM (SK-MEL-2) was < 1%. It also gave an inhibition at 10 µM (MDA-MB-435) of 0.53%.

For `COc1ccc(-c2cn3ccnc3c(-c3ccc4c(c3)ncn4C3CCCCC3)n2)cc1` [Compound 10, 8-(1-cyclohexyl-1H-benzo[d]imidazol-5-yl)-6-(4-methoxyphenyl)imidazo[1,2-a]pyrazine], the inhibition at 10 µM (786-0) was 12.7%, the inhibition at 10 µM (TK-10) was < 1% and the inhibition at 10 µM (M14) was 9.96%. It also gave an inhibition at 10 µM (LOX IMVI) of 7.86%, an inhibition at 10 µM (UACC-62) of 1.25% and an inhibition at 10 µM (U251) of 3.4%. For the same molecule, the inhibition at 10 µM (SF-295) was 12.5%, the inhibition at 10 µM (SF-539) was 9.71% and the inhibition at 10 µM (SNB-19) was 4.26%. For the same molecule, the inhibition at 10 µM (SF-268) was 3.96%, the inhibition at 10 µM (SNB-75) was 15.9% and the inhibition at 10 µM (SW-620) was < 1%. The inhibition at 10 µM (KM12) was 2.27%, the inhibition at 10 µM (MALME-3M) was < 1% and the inhibition at 10 µM (UACC-257) was < 1%. The inhibition at 10 µM (SK-MEL-28) was 4.86%, the inhibition at 10 µM (SK-MEL-5) was 5.95% and the inhibition at 10 µM (SK-MEL-2) was 9.88%. For the same molecule, the inhibition at 10 µM (MDA-MB-435) was 6.92%.

Work on `c1ccc2c(-c3cn4ccnc4c(-c4ccc5c(c4)ncn5C4CCCCC4)n3)cccc2c1` [Compound 12, 8-(1-cyclohexyl-1H-benzo[d]imidazol-5-yl)-6-(naphthalen-1-yl)imidazo[1,2-a]pyrazine] yielded an inhibition at 10 µM (786-0) of 13.3%, an inhibition at 10 µM (TK-10) of 5.82% and an inhibition at 10 µM (M14) of 0.39%. The inhibition at 10 µM (LOX IMVI) was 11.4%, the inhibition at 10 µM (UACC-62) was 21% and the inhibition at 10 µM (U251) was 27.9%. For the same molecule, the inhibition at 10 µM (SF-295) was 7.88%, the inhibition at 10 µM (SF-539) was 7.72% and the inhibition at 10 µM (SNB-19) was 16.7%. It also gave an inhibition at 10 µM (SF-268) of 11.8%, an inhibition at 10 µM (SNB-75) of 9.15% and an inhibition at 10 µM (SW-620) of 1.43%. For the same molecule, the inhibition at 10 µM (KM12) was 8.69%, the inhibition at 10 µM (MALME-3M) was < 1% and the inhibition at 10 µM (UACC-257) was 35.5%. For the same molecule, the inhibition at 10 µM (SK-MEL-28) was < 1%, the inhibition at 10 µM (SK-MEL-5) was 2.13% and the inhibition at 10 µM (SK-MEL-2) was 20.6%. The inhibition at 10 µM (MDA-MB-435) was 4.07%.

In the case of `Fc1ccc(-c2cn3ccnc3c(-c3ccc4c(c3)ncn4C3CCCCC3)n2)cc1` [Compound 13, 8-(1-cyclohexyl-1H-benzo[d]imidazol-5-yl)-6-(4-fluorophenyl)imidazo[1,2-a]pyrazine], the inhibition at 10 µM (786-0) is reported as 3.12%, the inhibition at 10 µM (TK-10) is reported as < 1% and the inhibition at 10 µM (M14) is reported as 0.73%. The inhibition at 10 µM (LOX IMVI) was 0.76%, the inhibition at 10 µM (UACC-62) was 2.44% and the inhibition at 10 µM (U251) was 3.57%. The inhibition at 10 µM (SF-295) was < 1%, the inhibition at 10 µM (SF-539) was < 1% and the inhibition at 10 µM (SNB-19) was < 1%. For the same molecule, the inhibition at 10 µM (SF-268) was 5.13%, the inhibition at 10 µM (SNB-75) was < 1% and the inhibition at 10 µM (SW-620) was < 1%. For the same molecule, the inhibition at 10 µM (KM12) was 7.3%, the inhibition at 10 µM (MALME-3M) was < 1% and the inhibition at 10 µM (UACC-257) was < 1%. The inhibition at 10 µM (SK-MEL-28) was < 1%, the inhibition at 10 µM (SK-MEL-5) was 2.9% and the inhibition at 10 µM (SK-MEL-2) was 6.3%. For the same molecule, the inhibition at 10 µM (MDA-MB-435) was < 1%.

In the case of `c1cn2cc(-c3ccsc3)nc(-c3ccc4c(c3)ncn4C3CCCCC3)c2n1` [Compound 14, 8-(1-cyclohexyl-1H-benzo[d]imidazol-5-yl)-6-(thiophen-3-yl)imidazo[1,2-a]pyrazine], the inhibition at 10 µM (786-0) is reported as < 1%, the inhibition at 10 µM (TK-10) is reported as < 1% and the inhibition at 10 µM (M14) is reported as 3.43%. The inhibition at 10 µM (LOX IMVI) was 14.5%, the inhibition at 10 µM (UACC-62) was 18.5% and the inhibition at 10 µM (U251) was 30.2%. For the same molecule, the inhibition at 10 µM (SF-295) was < 1%, the inhibition at 10 µM (SF-539) was 2.82% and the inhibition at 10 µM (SNB-19) was 3.96%. The inhibition at 10 µM (SF-268) was 5.01%, the inhibition at 10 µM (SNB-75) was < 1% and the inhibition at 10 µM (SW-620) was < 1%. For the same molecule, the inhibition at 10 µM (KM12) was 11.7%, the inhibition at 10 µM (MALME-3M) was 3.01% and the inhibition at 10 µM (UACC-257) was < 1%. The inhibition at 10 µM (SK-MEL-28) was < 1%, the inhibition at 10 µM (SK-MEL-5) was 24.8% and the inhibition at 10 µM (SK-MEL-2) was 0.58%. For the same molecule, the inhibition at 10 µM (MDA-MB-435) was 6%.

`c1csc(-c2cn3ccnc3c(-c3ccc4c(c3)ncn4C3CCCCC3)n2)c1` [Compound 22, 8-(1-cyclohexyl-1H-benzo[d]imidazol-5-yl)-6-(thiophen-2-yl)imidazo[1,2-a]pyrazine] was tested, and the inhibition at 10 µM (786-0) was 0.59%, the inhibition at 10 µM (TK-10) was < 1% and the inhibition at 10 µM (M14) was < 1%. The inhibition at 10 µM (LOX IMVI) was 1.01%, the inhibition at 10 µM (UACC-62) was 0.23% and the inhibition at 10 µM (U251) was < 1%. The inhibition at 10 µM (SF-295) was < 1%, the inhibition at 10 µM (SF-539) was < 1% and the inhibition at 10 µM (SNB-19) was < 1%. The inhibition at 10 µM (SF-268) was 2.5%, the inhibition at 10 µM (SNB-75) was < 1% and the inhibition at 10 µM (SW-620) was < 1%. The inhibition at 10 µM (KM12) was 6.84%, the inhibition at 10 µM (MALME-3M) was < 1% and the inhibition at 10 µM (UACC-257) was < 1%. The inhibition at 10 µM (SK-MEL-28) was < 1%, the inhibition at 10 µM (SK-MEL-5) was 1.16% and the inhibition at 10 µM (SK-MEL-2) was 13.1%. The inhibition at 10 µM (MDA-MB-435) was < 1%.

`c1cn2cc(-c3ccc4c(c3)ncn4C3CCCCC3)nc(-c3ccc4c(c3)ncn4C3CCCCC3)c2n1` [Compound 30, 6,8-bis(1-cyclohexyl-1H-benzo[d]imidazol-5-yl)imidazo[1,2-a]pyrazine] was tested, and the inhibition at 10 µM (786-0) was 13.9%, the inhibition at 10 µM (TK-10) was < 1% and the inhibition at 10 µM (M14) was < 1%. For the same molecule, the inhibition at 10 µM (LOX IMVI) was 11.7%, the inhibition at 10 µM (UACC-62) was 12.4% and the inhibition at 10 µM (U251) was 29.7%. It also gave an inhibition at 10 µM (SF-295) of 10.4%, an inhibition at 10 µM (SF-539) of 25.4% and an inhibition at 10 µM (SNB-19) of 5.02%. For the same molecule, the inhibition at 10 µM (SF-268) was 4.85%, the inhibition at 10 µM (SNB-75) was 6.25% and the inhibition at 10 µM (SW-620) was < 1%. It also gave an inhibition at 10 µM (KM12) of 56.2%, an inhibition at 10 µM (MALME-3M) of 8.16% and an inhibition at 10 µM (UACC-257) of 5.79%. The inhibition at 10 µM (SK-MEL-28) was < 1%, the inhibition at 10 µM (SK-MEL-5) was 20.5% and the inhibition at 10 µM (MDA-MB-435) was < 1%.
